# Results taken from ChEMBL document CHEMBL1158333, “New diterpenes from the South African soft coral Eleutherobia aurea” (1997).
# Assay: Antiinflammatory activity in rabbit neutrophils assessed as inhibition of fMLP-induced superoxide radical anion generation at 20 ug/mL
# Assay type: functional
# Details: Oryctolagus cuniculus, Neutrophil
row,Structure (SMILES),inhibition at 20 µg/mL
1,C=C1CC/C=C(\C)CC[C@@H]2C(C(CC=C(C)C)OC(C)=O)=CO[C@H](OC(C)=O)[C@@H]12 (stereo partly drawn),> 90%
2,"C=C(C)C(CC(OC(C)=O)C1=CO[C@H](OC(C)=O)[C@H]2C(=C)CC[C@@H]3O[C@@]3(C)CC[C@H]12)OC(C)=O (stereo partly drawn) [7,8-EPOXYZAHAVIN A]",> 90%
3,C=C(C)C(CC(OC(C)=O)C1=CO[C@H](OC(C)=O)[C@H]2C(=C)CC/C=C(\C)CC[C@H]12)OC(C)=O (stereo partly drawn) [ZAHAVIN A],> 90%
